Laboratory results taken from patent US20240374626A1, “METHODS OF ENHANCING MILK PRODUCTION IN LACTATING MAMMALIAN SUBJECTS” (priority 2023, published 2024).

What was measured:
HC11 cells = test: Milk production markers in differentiated HC11 (milk domes, Csn2 RT-qPCR, CSN2 WB, PLIN2 ICC); format: cell-based, mouse; conditions: HC11, doxorubicin 50 nM, differentiated
Protocol: The HC11 cell line was obtained from American Type Culture Collection (ATCC) and routinely checked for mycoplasma (Mycoplasma PCR kit, ABM, G238). Undifferentiated HC11 cells were cultured in growing medium (RPMI-1640; Thermo Fisher Scientific, 72400047), supplemented with 10% FBS, 5 μg/ml insulin (Millipore-Sigma, 16634), 10 ng/ml epidermal growth factor (EGF; Preprotech, AF-100-15) and 1× AntiAnti (Thermo Fisher Scientific, 15240112) at 37° C. with 5% CO2. Cells were grown to confluency and maintained in growing medium for 2 days, until they became competent. Competent HC11 cells were primed for differentiation by culturing them in priming medium [RPMI-1640 supplemented with 5 μg/ml insulin, 1 μM dexamethasone (Millipore-Sigma, D4902-1 G) and 1× Anti-Anti] for 24 h at 37° C. with 5% CO2. To induce differentiation, primed HC11 cells were cultured in DIP Medium [RPMI-1640, supplemented with 10% FBS, 5 μg/ml insulin, 1 μM dexamethasone, 1× anti-anti and 3 μg/ml Prolactin (NHPP, oPRL-21)] at 37° C. with 5% CO2.
(§1) […] Drugs were maintained through the differentiation process and added with every change of media.
Whole cell lysates were prepared using 1×NP40 lysis buffer (Thermo Fisher Scientific, FNN0021) supplemented with Pierce Protease and Phosphatase inhibitors (Thermo Fisher Scientific, A32959). Cells were washed with ice-cold PBS (GIBCO, 14190136) and lysed direct in buffer and kept at 4° C. rocking at 70 rpm for 30 min. Lysed cells were collected and centrifuged at 12,000 rpm at 4° C. for 15 min. Protein concentration was quantified using Qubit 4 fluorometer (Thermo Fisher, Q33238). Samples were resolved by SDS page and transferred to polyvinylidene difluoride (PVDF, Millipore-Sigma, IPVH00010) for 60 min at 250 mA. Immunoblots were blocked for 1 h at room temperature using either 5% non-fat milk or 5% BSA TBST. Primary antibodies [anti-GAPDH (SCBT, sc-365062), anti-Actin (SCBT, sc-47778), anti-Cyclin B1 (SCBT, sc-245), anti-Cyclin E1 (Millipore-Sigma, SAB4503516) and anti-CSN2 (ABclonal, A12749)] were incubated overnight at 4° C. in a rocker. HRP-conjugated secondary antibodies ([…]) were used for 1 h at room temperature. Immunoblots were developed using Clarity ECL (Bio-Rad), detected using a Bio-Rad ChemiDoc MP Image, and quantified using ImageJ.
(§2) HC11 cells were fixed using ice-cold MeOH for 10 min. After washing with 1×PBS, cells were incubated for 1 h at room temperature with primary antibodies [anti-γH2AX (SCBT, sc-517348), anti-pATR (Genetex, GTX128145), anti-PLIN2 (generously provided by Jim McManaman)] in a humid incubation chamber. After incubation, cells were washed three times using 1×PBS and incubated for 1 h at room temperature in darkness using corresponding Alexa Fluor AffiniPure secondary antibodies (Jackson ImmunoResearch) and Phalloidin-iFluor 488 Reagent (Abcam, ab176753) when indicated. Cells were washed three times using 1×PBS and incubated with Hoechst 33342 (AnaSpec, AS-83218) for 10 min. Cells were mounted using fluoromount-G (Southern Biotech, 0100-01) and visualized using Zeiss Axio Imager Microscope. Integrated density of PLIN2, nuclear γH2AX and nuclear pATR was quantify using ImageJ.
For RNA isolation from FACS purified populations, mammary gland cell suspensions were blocked using Mouse BD Fc Block™ (BD Biosciences) for 10 min. Cells were subsequently resuspended on 1×PBS at a density of 10^7 cells/ml and stained with the following antibodies for 30 min on ice: anti-CD24 PE (Stem Cell Technologies, 60099PE.1), anti-CD29 PE-Cy7 (BioLegend, 102222), anti-CD45-APC (BioLegend,105826), Ter119-APC (BD Biosciences, 561033), CD31-ACP (BD Biosciences, 551262). Propidium iodide at a final concentration of 0.5 μg/ml was used for the discrimination of dead cells. Stromal, basal and luminal mammary populations were sorted using a BD FACS Aria II Cell Sorter. […]

γH2AX = γH2AX immunofluorescence on HC11 cells; format: cell-based, mouse; conditions: HC11, doxorubicin 50 nM, 24 h post-treatment
Protocol: as §1, §2

COc1cccc2c1C(=O)c1c(O)c3c(c(O)c1C2=O)C[C@@](O)(C(=O)CO)C[C@@H]3O[C@H]1C[C@H](N)[C@H](O)[C@H](C)O1 [doxorubicin]
CSN2, WB (HC11 cells): increase | γH2AX (γH2AX): increase
